{
  "source": "patent US20070292951A1",
  "about": "“MEDIA AND METHODS FOR CULTURING PLANT EMBRYOS” (priority 1997, published 2007)",
  "key": {"[1]": {"test_system": "Brassica napus microspores", "experiment": "Microspore embryogenesis in liquid half-strength NLN medium with different osmotica", "format": "cell-based, Brassica napus L. cv. Topas", "details": "for Induction of MD embryos: within two weeks, 13% sucrose, 8% mannitol or 25% PEG 4000 (w/v), mannitol and PEG media with about 0.08%-0.1% sucrose", "experimental": "A mixed population consisting of microspores from mid- and late-uninucleate stages to young bicellular pollen was isolated from the flower buds using a protocol modified from that described by Ferrie and Keller, in: Gamborg and Phillips (eds) Plant Cell, Tissue and Organ Culture, Fundamental methods, pp 155-164, 1993 (Springer Verlag). For each treatment, twelve surface-sterilized buds (3.6-4.2 mm in length) were macerated in 5 ml half-strength B5 washing medium (Gamborg et al., Exp. Cell Res. 50:151-158, 1968) containing 13% sucrose (w/v) in 50 ml beakers. The crude suspension was filtered through 44 μm Nytex nylon mesh, both beakers and meshes were rinsed, and a total of 20 ml was collected into 50 ml centrifuge tubes and centrifuged at 150×g for 3 minutes. The pellets were resuspended in 5 ml of washing medium, the washing procedure was repeated twice, and the final supernatant was carefully pipetted out, leaving the pellet in approximately 0.3-0.4 ml of washing medium. Final resuspension was done by adding filter-sterilized half-strength NLN medium (Lichter, Z. Pflanzenphysiol. 105:427-434, 1982) containing 13% (w/v) sucrose as the control treatment; in the other two treatments, ½ NLN sucrose-free medium with 8% (w/v) mannitol or 25% (w/v) PEG 4000 (Fluka Chemika) was added, respectively. Therefore, the ½ NLN-mannitol and -PEG media contained only about 0.08%-0.1% sucrose, remaining from the washing medium.\nAliquots of […] of microspore suspension were plated into 10×15 mm sterile petri dishes, with an approximate plating density of 40,000 microspores/ml. Plates were first incubated at 35° C. for one hour followed by 33° C. for the next 14-18 hours and then placed on a shaker (50 rpm) in the dark at 24° C. for 14 days. During the first 8 days in culture, PEG and mannitol media were gradually diluted by adding to the plates an adequate volume of a simple ½ NLN medium, containing no sucrose. mannitol, or PEG, to give a final concentration of approximately 22% PEG and 7% mannitol. The concentration of sucrose in the control treatment was lowered the same way to a final concentration of 11%. After two weeks, plates with MD embryos were placed under light (16/8 hours photoperiod) at 24° C. for an additional week. Experiments dealing with mannitol as osmoticum were repeated three times with five replicates, while experiments dealing with PEG and sucrose as a control were repeated at least ten times with a minimum of three replicates.\nMicrospores at late unicellular stage and young bicellular pollen were isolated from the flower buds using a protocol for Brassica napus, modified from that described by Ferrie and Keller, in: Gamborg and Phillips (eds) Plant Cell, Tissue and Organ Culture, Fundamental methods, pp 155-164, 1993 (Springer Verlag). Twelve surface-sterilized buds (3.6-4.2 mm in length) were macerated in a 50 ml beaker with 5 ml half-strength B5 washing medium (Gamborg et al., Exp. Cell Res. 50:151-158, 1968) containing 13% sucrose (w/v). The crude suspension was filtered through 44 μm nylon mesh and centrifuged at 150×g for 3 minutes, and the pellet was resuspended in 5 ml of washing medium. The washing procedure was repeated twice, and the final supernatant was carefully pipetted out, leaving the pellet in approximately 0.3-0.4 ml of washing medium. Final resuspension was done by adding filter-sterilized half-strength NLN medium (Lichter, Z. Pflanzenphysiol 105:427-434, 1982) containing either 13% sucrose (w/v) as a control or 25% (w/v) polyethylene glycol 4000 (Fluka Chemika). Therefore, the final ½ NLN-PEG medium contained only about 0.08%-0.1% sucrose, remaining from the washing medium.\nAliquots of 10 ml of the microspore suspension were plated into 10×15 mm sterile petri dishes, with an approximate plating density of 40,000 microspores/ml. Plates were first incubated at 35° C. for one hour followed by 33° C. for the next 14-18 hours and then placed on a shaker (50 rpm) in the dark at 24° C. for 14 days. […]"}, "[2]": {"test_system": "Brassica napus MD embryos", "experiment": "Conversion of three-week-old MD embryos into plantlets on hormone-free solid medium", "format": "cell-based", "details": "embryos grown on the named osmoticum", "experimental": "Plates containing the embryos may then be placed under light at 24° C. for an additional week. Once placed under light, the embryos generally increase in size and become green quickly. Within one week under light, cotyledons are typically well-developed, often widely opened and dark green, and the embryos are morphologically similar to zygotic embryos dissected from ovules (see FIGS. 2A-2C). The three-week embryos may then be rinsed and transferred to culture containers containing a suitable medium, such as half-strength B5 medium containing 1% sucrose and no growth regulators. The conversion frequency is the percentage of MD embryos that develop roots, true leaves and a green color within 3-4 weeks. Aliquots of 10 ml of the microspore suspension were plated into 10×15 mm sterile petri dishes, with an approximate plating density of 40,000 microspores/ml. Plates were first incubated at 35° C. for one hour followed by 33° C. for the next 14-18 hours and then placed on a shaker (50 rpm) in the dark at 24° C. for 14 days. […] Conversion frequency (%) of sucrose- and PEG-cultured MD embryos was recorded based on presence of roots, appearance of first true leaves and green color of plantlets, with three replicates for each treatment."}},
  "data": [
    {"smiles": "OC[C@@H](O)[C@@H](O)[C@H](O)[C@H](O)CO", "note": "[mannitol]", "values": [
      {"measurement": "Cell divisions of microspores after heat shock treatment", "setting": "[1]; mannitol solution", "result": "no divisions were observed"},
      {"measurement": "Induction of MD embryos", "setting": "[1]", "result": "yielded no embryos"}
    ]},
    {"smiles": "OC[C@H]1O[C@@](CO)(O[C@H]2O[C@H](CO)[C@@H](O)[C@H](O)[C@H]2O)[C@@H](O)[C@@H]1O", "note": "[sucrose]", "values": [
      {"measurement": "Embryo length at heart-shaped stage", "setting": "[1]; SEM", "result": "approximately 300 μm"},
      {"measurement": "Embryo length at torpedo stage", "setting": "[1]; SEM", "result": "≥ 400", "unit": "μm"},
      {"measurement": "Proembryo size at globular-to-heart-shaped transition", "setting": "[1]; about day 8, SEM", "result": "150-250 μm"},
      {"measurement": "Embryo length, cotyledonary stage", "setting": "[1]; after two weeks in culture", "result": "2-4 mm"},
      {"measurement": "Starch grains and protein bodies in cotyledon stage embryos", "setting": "[1]; light microscopy", "result": "abundant starch grains with no protein bodies"},
      {"measurement": "Morphology of three-week-old MD embryos compared with zygotic embryos (14 and 15 DPA)", "setting": "[1]; three weeks, last week under light", "result": "pale green, had elongated embryo axes and relatively small underdeveloped cotyledons"},
      {"measurement": "Induction of MD embryos", "setting": "[1]", "result": "developed into embryos"},
      {"measurement": "Plantlet morphology after transfer to solid medium", "setting": "[2]", "result": "hypocotyls were short, often thick (hyperhydrated) and aberrant"}
    ]}
  ]
}
